Literature values as cited in publication PMC4010828 (mBio, 2014).

Test system: sensitive E. coli cells

microcin C (MRTGNAN; C-terminal adenylate, aminopropyl phosphoramidate) [McC]
Concentration that inhibits the growth of sensitive E. coli cells: low micromolar concentrations
